In assay [1] the target is T1, acetylcholine esterase (AChE) (Mus musculus, UniProt P21836).
T1 construct: brain homogenate and serum of mouse were used as choline esterase enzyme sources; from tissue; host or cells: mouse brain homogenate
T1 sequence (P21836 32-614): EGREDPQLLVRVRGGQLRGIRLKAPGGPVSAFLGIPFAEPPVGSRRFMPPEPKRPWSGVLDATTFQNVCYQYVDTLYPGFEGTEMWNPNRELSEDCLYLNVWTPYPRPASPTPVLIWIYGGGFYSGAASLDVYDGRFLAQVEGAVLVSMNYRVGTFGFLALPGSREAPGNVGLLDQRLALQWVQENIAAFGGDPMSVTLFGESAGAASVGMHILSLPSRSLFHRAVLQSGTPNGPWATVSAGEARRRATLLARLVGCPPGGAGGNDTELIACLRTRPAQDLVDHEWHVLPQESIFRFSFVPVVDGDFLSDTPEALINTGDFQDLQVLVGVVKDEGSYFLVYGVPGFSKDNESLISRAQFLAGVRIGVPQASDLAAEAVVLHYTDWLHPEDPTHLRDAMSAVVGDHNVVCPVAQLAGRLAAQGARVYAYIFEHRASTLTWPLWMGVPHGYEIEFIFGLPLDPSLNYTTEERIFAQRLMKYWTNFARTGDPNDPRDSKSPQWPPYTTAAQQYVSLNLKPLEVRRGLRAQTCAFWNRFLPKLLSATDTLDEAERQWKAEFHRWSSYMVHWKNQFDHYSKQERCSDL
In words: In vitro assay for choline esterase inhibition (Ellman method), acetylthiocholine substrate, mouse brain homogenate. In kind it is biochemical. How it is done:
(§1) For measurement of esterase activity, brain homogenate and serum of mouse were used as choline esterase enzyme sources, and the method of Ellman et. al (Biochemical pharmacology 7: 88-95 1961) were referred. Compound of each example were diluted in dimethylsulfoxide.
(§2) In detail, acetylthiocholine or butyrylthiocholine as substrates, test compounds, and DNTB [[…]] were added to the mouse brain homogenate or serum, respectively.
(§3) After incubation, thiocholine was produced by enzyme reaction in the mixture, and then, the yellow product was formed by the reaction of thiocholine and DTNB. The activity of acetylcholine esterase (AChE) or butyrylcholine esterase (BuChE) was evaluated by determination of absorbance at 415 nm. […] And the selectivity for BuChE inhibition of each compound was calculated by the ratio: IC50 (AchE)/IC50 (BuChE).
On the technique in general: In Ellman's method for cholinesterases, released thiocholine reacts with DTNB.

The target in assay [2] is T2, butyrylcholine esterase (BuChE) (Mus musculus, UniProt Q03311).
T2 construct: brain homogenate and serum of mouse were used as choline esterase enzyme sources; from tissue; host or cells: mouse serum
In words: In vitro assay for choline esterase inhibition (Ellman method), butyrylthiocholine substrate, mouse serum. In kind it is biochemical. As to conditions: for Ratio AChE/BuChE: selectivity for BuChE inhibition: IC50 (AchE)/IC50 (BuChE); for selectivity to butyrylcholinesterase (BuChE versus AChE inhibitory activity), in words: summary of Tables 1-3. How it is done:
as §1, §2, §3

Where [3] appears, read: mouse serum, butyrylthiocholine, absorbance at 415 nm, read-out: BuChE inhibitory activity IC50.
Where [4] appears, read: mouse brain homogenate, acetylthiocholine, absorbance at 415 nm, read-out: AChE inhibitory activity IC50.

Read-outs that look alike come from different tables or passages of the source.

T2 sequence (Q03311 30-603): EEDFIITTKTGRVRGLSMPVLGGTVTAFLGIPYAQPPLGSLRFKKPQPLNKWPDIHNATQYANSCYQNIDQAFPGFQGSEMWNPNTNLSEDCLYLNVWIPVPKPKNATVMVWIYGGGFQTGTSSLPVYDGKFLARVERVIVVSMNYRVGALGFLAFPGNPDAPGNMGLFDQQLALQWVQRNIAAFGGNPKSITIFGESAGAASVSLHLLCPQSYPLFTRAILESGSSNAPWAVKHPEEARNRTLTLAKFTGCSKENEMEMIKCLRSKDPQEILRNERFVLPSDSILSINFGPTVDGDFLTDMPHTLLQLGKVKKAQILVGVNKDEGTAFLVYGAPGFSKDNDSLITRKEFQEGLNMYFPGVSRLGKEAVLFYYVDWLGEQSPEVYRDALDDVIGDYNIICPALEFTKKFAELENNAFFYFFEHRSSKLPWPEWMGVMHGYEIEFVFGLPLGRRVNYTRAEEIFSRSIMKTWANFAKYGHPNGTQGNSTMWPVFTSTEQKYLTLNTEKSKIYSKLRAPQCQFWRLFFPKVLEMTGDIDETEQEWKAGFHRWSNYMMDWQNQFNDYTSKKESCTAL

The IC50 is the concentration that gives 50% inhibition. Take `CC(C)c1ccc(NC(=O)Oc2ccc3c(c2)CCN3Cc2cccnc2)cc1` [Example 28, 1-(3-pyridylmethyl)indolin-5-yl 4-isopropylphenylcarbamate]: the IC50 was greater than 100000 nM in assay [1] and 470 nM in assay [2]. In addition, the “Ratio AChE/BuChE” value in assay [2] was greater than 210.

With `CC(C)c1ccc(CCNC(=O)Oc2ccc3c(c2)CCN3Cc2ccccc2)cc1` [Example 33, 1-benzylindolin-5-yl 4-isopropylphenethylcarbamate], the IC50 in assay [1] was greater than 100000 nM. Also, in assay [2], the IC50 was found to be 350 nM and the “Ratio AChE/BuChE” value was greater than 290.

Consider `CC(C)(C)C1CCC(NC(=O)Oc2ccc3c(c2)CCN3Cc2ccccc2)CC1` (stereo not shown) [Example 43, 1-benzylindolin-5-yl 4-tert-butylcyclohexylcarbamate], for which the IC50 in assay [1] was greater than 100000 nM. In assay [2], the IC50 is 170 nM and the “Ratio AChE/BuChE” value is listed as greater than 590.

On to `Cc1ccc(NC(=O)Oc2ccc3c(c2)CCN3Cc2ccccc2)cc1` [Example 55, 1-benzylindolin-5-yl-4-methylphenylcarbamate], for which the IC50 in assay [1] (read-out: AChE inhibitory activity IC50) is greater than 100000 nM; in assay [2] (setting [3]), 290 nM. In addition, the “Ratio AChE/BuChE” value in assay [2] is reported as greater than 340.

For `O=C(NCCC1CCN(Cc2ccccc2)CC1)Oc1ccc2c(c1)CCN2Cc1ccccc1` [Example 139, 1-benzylindolin-5-yl 2-(1-benzylpiperidin-4-yl)ethylcarbamate], the IC50 in assay [1] is 2700 nM; in assay [2], 43 nM. Also, the “Ratio AChE/BuChE” value in assay [2] stood at 63.

With `O=C(NCc1ccccc1)Oc1ccc2c(c1)CCN2Cc1ccccn1` [Example 150, 1-(2-pyridylmethyl)indolin-5-yl benzylcarbamate], the results for the IC50 in assay [1] (setting [4]) and in assay [2] (setting [3]) were 110 nM and 10 nM, respectively. In addition, the “Ratio AChE/BuChE” value in assay [2] is 11.

With `O=C(Nc1ccc2c(c1)CCC2)Oc1ccc2c(c1)CCN2Cc1ccccc1` [Example 85, 1-benzylindolin-5-yl 5-indanylcarbamate], the figures for the IC50 in assay [1] and in assay [2] were greater than 100000 nM and 420 nM, respectively. For the same compound, in assay [2], the “Ratio AChE/BuChE” value was greater than 240.

With `COc1ccc(CNC(=O)Oc2ccc3c(c2)CCN3Cc2ccccc2)cc1` [Example 31, 1-benzylindolin-5-yl 4-methoxybenzylcarbamate], the IC50 worked out at 4100 nM in assay [1] (setting [4]) and 17 nM in assay [2] (setting [3]). The “Ratio AChE/BuChE” value in assay [2] amounted to 240. Besides, the “selectivity to butyrylcholinesterase (BuChE versus AChE inhibitory activity), in words” value in assay [2] is “much higher”.

For the compound `CN(C)c1ccc(NC(=O)Oc2ccc3c(c2)CCN3Cc2ccccn2)cc1` [Example 152, 1-(2-pyridylmethyl)indolin-5-yl 4-dimethylaminophenylcarbamate], the IC50 in assay [1] (setting [4]) came out at 1100 nM; in assay [2] (setting [3]), 57 nM. Besides, in assay [2], the “Ratio AChE/BuChE” value worked out at 19.

In assay [1], `CN(CC1CCCCC1)C(=O)Oc1ccc2c(c1)CCN2Cc1ccccc1` [Example 214, O-(1-benzylindolin-5-yl)-N-(cyclohexylmethyl)-N-methylcarbamate] yielded an IC50 greater than 100000 nM. In assay [2], the midpoint of inhibition, the IC50, lay at 51 nM; the “Ratio AChE/BuChE” value is recorded as greater than 2000; the “selectivity to butyrylcholinesterase (BuChE versus AChE inhibitory activity), in words” value is “much higher”.

With `CC(C)(C)CCNC(=O)Oc1ccc2c(c1)CCN2Cc1ccccc1` [Example 42, 1-benzylindolin-5-yl 3,3-dimethylbutylcarbamate], the IC50 in assay [1] is greater than 100000 nM. In assay [2], the IC50 is 23 nM; the “Ratio AChE/BuChE” value was greater than 4300; the “selectivity to butyrylcholinesterase (BuChE versus AChE inhibitory activity), in words” value is “much higher”.

With `O=C(NCc1ccccc1)Oc1ccc2c(c1)CCN2Cc1ccccc1` [Example 15, 1-benzylindolin-5-yl benzylcarbamate], the IC50 in assay [1] (setting [4]) was 1800 nM. In assay [2] (setting [3]), the IC50 turned out to be 13 nM. In assay [2], the “Ratio AChE/BuChE” value turned out to be 140 and the “selectivity to butyrylcholinesterase (BuChE versus AChE inhibitory activity), in words” value is “much higher”.

With `CC(C)c1ccc(NC(=O)Oc2ccc3c(c2)C(C)(C)CN3Cc2ccccc2)cc1` [Example 145, 1-benzyl-3,3-dimethylindolin-5-yl-4-isopropylphenylcarbamate], the IC50 in assay [1] (setting [4]) is greater than 100000 nM; in assay [2] (setting [3]) it was 280 nM. Further, the “Ratio AChE/BuChE” value in assay [2] is recorded as greater than 360.

As for `Cc1ccc(C(C)NC(=O)Oc2ccc3c(c2)CCN3Cc2ccccc2)cc1` (stereo not shown) [Example 97, 1-benzylindolin-5-yl 1-(p-tolyl)ethylcarbamate], the IC50 in assay [1] was greater than 100000 nM; in assay [2], 450 nM. Besides, the “Ratio AChE/BuChE” value in assay [2] is recorded as greater than 220.

Consider `O=C(NCCc1cccnc1)Oc1ccc2c(c1)CCN2Cc1ccccc1` [Example 120, 1-benzylindolin-5-yl 2-(3-pyridyl)ethylcarbamate], for which, in assay [1] (setting [4]), the IC50 was 8500 nM. Besides, the IC50 in assay [2] (setting [3]) was determined as 24 nM. In assay [2], the “Ratio AChE/BuChE” value was found to be 350 and the “selectivity to butyrylcholinesterase (BuChE versus AChE inhibitory activity), in words” value is reported as “much higher”.

As to `O=C(NCCc1ccncc1)Oc1ccc2c(c1)CCN2Cc1ccccc1` [Example 119, 1-benzylindolin-5-yl 2-(4-pyridyl)ethylcarbamate], the IC50 in assay [1] (setting [4]) stood at 14000 nM. For the same compound, in assay [2] (setting [3]), the IC50 is 59 nM. In assay [2], the “Ratio AChE/BuChE” value worked out at 240 and the “selectivity to butyrylcholinesterase (BuChE versus AChE inhibitory activity), in words” value is on record as “much higher”.

For the compound `O=C(Nc1ccc2c(c1)CCO2)Oc1ccc2c(c1)CCN2Cc1ccccc1` [Example 14, 1-benzylindolin-5-yl 2,3-dihydro-1-benzofuran-5-ylcarbamate], the IC50 in assay [1] (setting [4]) was 2700 nM; in assay [2] (setting [3]) it was 41 nM. In addition, the “Ratio AChE/BuChE” value in assay [2] came out at 66.

Turning to `O=C(NCCc1ccc(Cl)cc1Cl)Oc1ccc2c(c1)CCN2Cc1ccccc1` [Example 118, 1-benzylindolin-5-yl 2,4-dichlorophenethylcarbamate], in assay [1], the IC50 was greater than 100000 nM. Besides, in assay [2], inhibition was half-maximal at 10 nM (IC50); the “Ratio AChE/BuChE” value is recorded as greater than 10000; the “selectivity to butyrylcholinesterase (BuChE versus AChE inhibitory activity), in words” value was “much higher”.

Turning to `O=C(NCc1ccccc1)Oc1ccc2c(c1)CCN2` [Example 127, indolin-5-yl benzylcarbamate], the IC50 in assay [1] (setting [4]) is 750 nM; in assay [2] (setting [3]), 610 nM. Also, the “Ratio AChE/BuChE” value in assay [2] came out at 1.2.

With `O=C(NCC12CC3CC(CC(C3)C1)C2)Oc1ccc2c(c1)CCN2Cc1ccccc1` [Example 47, 1-benzylindolin-5-yl 1-adamantanemethylcarbamate], the IC50 in assay [1] is greater than 100000 nM. Further, in assay [2], the midpoint of inhibition, the IC50, lay at 82 nM; the “Ratio AChE/BuChE” value was greater than 1200; the “selectivity to butyrylcholinesterase (BuChE versus AChE inhibitory activity), in words” value is on record as “much higher”.

Consider `O=C(NCCc1ccc(Cl)cc1)Oc1ccc2c(c1)CCN2Cc1ccccc1` [Example 104, 1-benzylindolin-5-yl 4-chlorophenethylcarbamate], for which, in assay [1] (setting [4]), the IC50 worked out at 5500 nM. Besides, the IC50 in assay [2] (setting [3]) came out at 11 nM. In addition, in assay [2], the “Ratio AChE/BuChE” value was 500 and the “selectivity to butyrylcholinesterase (BuChE versus AChE inhibitory activity), in words” value is listed as “much higher”.

As for `COc1ccc(CCNC(=O)Oc2ccc3c(c2)CCN3Cc2ccccc2)cc1` [Example 32, 1-benzylindolin-5-yl 4-methoxyphenethylcarbamate], the IC50 in assay [1] was greater than 100000 nM. In assay [2], 160 nM corresponded to half-maximal inhibition (IC50) and the “Ratio AChE/BuChE” value is recorded as greater than 630.

In turn, `CC(C)c1ccc(NC(=O)Oc2ccc3c(c2)CCN3Cc2ccc(O)cc2)cc1` [Example 78, 1-(4-hydroxybenzyl)indolin-5-yl 4-isopropylphenylcarbamate] returned a concentration for half-maximal inhibition (IC50) in assay [1] greater than 100000 nM. Moreover, in assay [2], it took 820 nM to reach half-maximal inhibition (IC50) and the “Ratio AChE/BuChE” value is listed as greater than 120.

`COc1ccc(NC(=O)Oc2ccc3c(c2)CCN3Cc2ccccc2)cc1OC` [Example 140, 1-benzylindolin-5-yl 3,4-dimethoxyphenylcarbamate]: the IC50 in assay [1] was greater than 100000 nM. In assay [2], the IC50 turned out to be 110 nM and the “Ratio AChE/BuChE” value was greater than 910.

In turn, `CCC(COC)NC(=O)Oc1ccc2c(c1)CCN2Cc1ccccc1` (stereo not shown) [Example 46, 1-benzylindolin-5-yl 1-methoxybutan-2-ylcarbamate] gave an IC50 in assay [1] greater than 100000 nM. For the same compound, in assay [2], the IC50 stood at 150 nM and the “Ratio AChE/BuChE” value was greater than 670.

On to `O=C(NCc1cccs1)Oc1ccc2c(c1)CCN2Cc1ccccc1` [Example 98, 1-benzylindolin-5-yl 2-thiophenemethylcarbamate], for which the IC50 was determined as 1600 nM in assay [1] (setting [4]) and 12 nM in assay [2] (setting [3]). Also, the “Ratio AChE/BuChE” value in assay [2] was 130. In addition, the “selectivity to butyrylcholinesterase (BuChE versus AChE inhibitory activity), in words” value in assay [2] is “much higher”.

The values above are taken from patent US8686024B2, “Indoline derivatives” (priority 2009, dated 2014).
